Measurements reported in publication PMC3265452 (PLoS Neglected Tropical Diseases, 2012).
Counter-ions that a name gives are not always drawn.

Each compound was assayed against AaDOP2 (Aedes aegypti, UniProt H6D5H2) (assay: AaDOP2 antagonist screen of the LOPAC1280 library (HEK-CRELuc-Aadop2 cells, luminescence)). Conditions: not given.
Type: cell-based

Sequence of AaDOP2 (H6D5H2 1-476): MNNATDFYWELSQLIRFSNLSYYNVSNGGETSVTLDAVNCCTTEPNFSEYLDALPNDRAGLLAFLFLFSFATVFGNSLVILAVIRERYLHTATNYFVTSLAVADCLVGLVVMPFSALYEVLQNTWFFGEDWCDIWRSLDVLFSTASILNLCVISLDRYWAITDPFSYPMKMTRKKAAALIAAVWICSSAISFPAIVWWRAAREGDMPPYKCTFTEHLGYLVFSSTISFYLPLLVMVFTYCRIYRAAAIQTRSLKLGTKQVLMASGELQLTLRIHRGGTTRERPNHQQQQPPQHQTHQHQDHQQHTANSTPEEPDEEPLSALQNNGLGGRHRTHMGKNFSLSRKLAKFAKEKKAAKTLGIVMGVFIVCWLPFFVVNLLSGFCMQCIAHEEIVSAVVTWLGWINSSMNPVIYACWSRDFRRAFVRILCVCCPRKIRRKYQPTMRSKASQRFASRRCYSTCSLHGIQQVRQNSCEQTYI

| Structure (SMILES) | Compound effect (percent receptor signaling in presence of test compound, relative lux units relative to the SCH23390 control) | % of the SCH23390 effect (percent inhibition of receptor response relative to the SCH23390 control) |
| --- | --- | --- |
| C[C@@H]1O[C@H](C[N+](C)(C)C)C[C@H]1O.[Cl-] (racemic) [Compound 814, (±)-Muscarine chloride] | 104 | – |
| COc1cc(C(O)CN)ccc1O.Cl (racemic) [Compound 862, (±)-Normetanephrine hydrochloride] | 81 | – |
| NCC(O)c1ccc(O)cc1 (racemic) [Compound 894, (±)-Octopamine hydrochloride, reference compound] | 104 | – |
| CN1CCN(C2Cc3ccccc3Sc3ccc(Cl)cc32)CC1.O=C(O)/C=C\C(=O)O (racemic) [Compound 913, (±)-Octoclothepin maleate] | 3 | 97% |
| CC(C)NCC(O)COc1cccc2ccccc12.Cl (racemic) [Compound 922, (±)-Propranolol hydrochloride] | 102 | – |
| CCCCCCCCCCCCCCCC(=O)OC(CC(=O)O)C[N+](C)(C)C.[Cl-] (racemic) [Compound 943, Palmitoyl-DL-Carnitine chloride] | 59 | – |
| O=C(O)[C@H]1CCCN[C@H]1C(=O)O (racemic) [Compound 985, (±)-cis-Piperidine-2,3-dicarboxylic acid] | 108 | – |
| CNCC(O)c1ccc(O)cc1 (racemic) [Compound 1077, (±)-Synephrine] | 88 | – |
| CCCCCCCCCCCCCCCCCC(=O)OC(CC(=O)O)C[N+](C)(C)C.[Cl-] (racemic) [Compound 1088, DL-Stearoylcarnitine chloride] | 101 | – |
| Br.C=CCN1CCc2cc(O)c(O)cc2C(c2ccccc2)C1 (racemic) [Compound 1139, (±)-SKF 38393, N-allyl-, hydrobromide] | 70 | – |
| O=C1c2c(O)cc(O)cc2O[C@H](c2ccc(O)c(O)c2)[C@H]1O (racemic) [Compound 1176, (±)-Taxifolin] | 102 | – |
| O=C(O)CCCCC1CCSS1 (racemic) [Compound 1185, (±)-alpha-Lipoic Acid] | 111 | – |
| O=C(O)CNC(=O)C(CS)Cc1ccccc1 (racemic) [Compound 1186, DL-Thiorphan] | 107 | – |
| COc1ccc(CCN(C)CCCC(C#N)(c2ccc(OC)c(OC)c2)C(C)C)cc1OC.Cl (racemic) [Compound 1252, (±)-Verapamil hydrochloride] | 117 | – |
| Cl.OC1CCCCC1N1CCC(c2ccccc2)CC1 (racemic) [Compound 1259, (±)-Vesamicol hydrochloride] | 97 | – |
| O=C(O)[C@H]1C[C@H](C(=O)O)N1 (relative stereo) [Compound 146, trans-Azetidine-2,4-dicarboxylic acid] | 110 | – |
| C[C@]12CC[C@H](O)CC1=CC[C@@H]1[C@@H]2CC[C@]2(C)C(=O)CC[C@@H]12 (relative stereo) [Compound 381, trans-Dehydroandrosterone] | 114 | – |
| C=CCN1CCC2(C)c3cc(O)ccc3CC1C2C.Cl (single isomer, unassigned; (+)) [Compound 123, (+)-N-Allylnormetazocine hydrochloride] | 90 | – |
| CC1OCC(C[N+](C)(C)C)O1.[I-] (single isomer, unassigned; (+)) [Compound 325, (+)-cis-Dioxolane iodide] | 96 | – |
| CC1C2Cc3ccc(O)cc3C1(C)CCN2CC1CC1 (single isomer, unassigned; (+)) [Compound 341, (+)-Cyclazocine] | 86 | – |
| COc1ccc2c(c1OC)C(=O)OC2C1c2cc3c(cc2CCN1C)OCO3 (single isomer, unassigned; (+)) [Compound 605, (+)-Hydrastine] | 122 | – |

Same assay, conditions: 10 µM compound, 300 nM dopamine, 2 hr; hit = compound effect <20

| Structure (SMILES) | Compound effect (percent receptor signaling in presence of test compound, relative lux units relative to the SCH23390 control) |
| --- | --- |
| CC(N)(Cc1ccc(O)c(O)c1)C(=O)O (racemic) [Compound 797, (±)-3-(3,4-dihydroxyphenyl)-2-methyl-DL-alanine] | 99% |
| CCCCCCCCCC(=O)NC(CN1CCOCC1)[C@H](O)c1ccccc1.Cl (mixture of isomers) [Compound 968, (±)-threo-1-Phenyl-2-decanoylamino-3-morpholino-1-propanol hydrochloride] | 85% |
| CCCN(CCc1ccccc1)C1CCc2c(O)cccc2C1.Cl (racemic) [Compound 1005, (±)-PPHT hydrochloride] | 73% |
| CCN1CCC[C@H]1CNC(=O)c1c(O)c(Cl)cc(Cl)c1OC.O=C(O)C(O)C(O)C(=O)O (racemic) [Compound 1069, S(+)-Raclopride L-tartrate] | 76% |
| CC(C)NCC(O)c1ccc(NS(C)(=O)=O)cc1.Cl (racemic) [Compound 1074, (±)-Sotalol hydrochloride] | 125% |
| CCN1CCCC1CNC(=O)c1cc(S(N)(=O)=O)ccc1OC (racemic) [Compound 1113, (±)-Sulpiride] | 114% |
| Br.Oc1cc2c(c(Cl)c1O)CCNCC2c1ccccc1 (racemic) [Compound 1133, (±)-6-Chloro-PB hydrobromide] | 99% |
| O=C1CCC(N2C(=O)c3ccccc3C2=O)C(=O)N1 (racemic) [Compound 1227, (±)-Thalidomide] | 107% |
| C=CC(N)CCC(=O)O (racemic) [Compound 1256, (±)-gamma-Vinyl GABA] | 108% |
| CC[C@@H]1Cc2cc(O)ccc2C2=C1c1ccc(O)cc1C[C@H]2CC (relative stereo) [Compound 423, (R,R)-cis-Diethyl tetrahydro-2,8-chrysenediol] | 40% |
